Experimental data taken from publication PMC8422652, “Neuromedin U induces an invasive phenotype in CRC cells expressing the NMUR2 receptor” (Journal of Experimental & Clinical Cancer Research : CR, 2021).

Experiments:
[1] = tested on: ERK1/2 in Caco-2 NMU clones; assay: ERK1/2 kinase activation in Caco-2 NMU clones with inhibitor; type: cell-based, human; details: preincubated 1 h with 20 µM inhibitor, immunoblot, n ≥ 4
Description: CRC cells were lysed with RIPA buffer (100 mM TRIS-HCl, pH 7.5, 300 mM NaCl, 0.2 % SDS with 1 % IGEPAL CA-630 and the Halt™ Protease Inhibitor Cocktail (Thermo Fisher Scientific)) with subsequent centrifugation (18,000 x g, 4 °C, 20 min). Total protein concentration in lysate was quantified by BCA method (Pierce BCA Protein Assay; Thermo Fisher Scientific). Samples were loaded and separated by SDS-PAGE (Mini-PROTEAN TGX Stain-Free Gels; Bio-Rad Laboratories, CA, USA) and transferred onto nitrocellulose membranes (Bio-Rad Laboratories). NMU protein was detected with rabbit anti-NMU antibody (Genetex, CA, USA), for ERK1/2 kinases analysis mouse anti-ERK1/2 (Santa Cruz Biotechnology, USA) and rabbit anti-pERK1/2 antibodies (Invitrogen) were used. In EVs (extracellular vesicles) purity analysis we used rabbit antibodies anti-GM130, anti-annexin V and anti-flotilin-1 (Cell Signaling Technologies, Danvers, MA, USA). Proteins used as loading controls were detected by mouse anti-β-actin, mouse anti-α-tubulin or rabbit anti-GAPDH antibody (Abcam, Cambridge, GB). We used secondary HRP-conjugated goat anti-mouse (Santa Cruz Biotechnology) or anti-rabbit antibodies (Invitrogen). The signal was detected by chemiluminescence (Thermo Fisher Scientific) with Kodak BioMax Light Film from Eastman Kodak (NY, USA). […]

[2] = tested on: Caco-2 NMU1 clone; assay: Cell migration assay (Transwell); type: cell-based, human; details: 8 μm Transwell, 3 h, n = 4
Description: Migration and invasion assays were performed using an 8 μm pore size Transwell system (Thermo Fischer Scientific). First, 2 × 10^5 cells, were incubated with CellTracker™ Green CMFDA Dye (Invitrogen) for 30 min at 37 °C with following washing step with PBS. Cells resuspended in 200 ul of growth medium without FBS were added inside the insert fixed in the well with 600 ul medium with 10 % FBS. For invasion assays, the chamber was pre-coated with 1 mg/ml Matrigel (Corning). Cells were incubated for 3 h (migration) or 6 h (invasion) at 37 °C. Cells on the apical side of the chamber were gently scraped off using cotton swabs, filters were washed in PBS and pictures were taken under the microscope Nikon Eclipse TE 2000-U. Pictures analysis was done with the use of FIJI image processing package.

In the case of `COc1cccc(-c2cc(=O)c3ccccc3o2)c1N` [PD98059], the “Activity of the ERK1/2 signalling pathway in the presence of inhibitor” value [1] is reported as “sensitive” and the “Cell migration in the presence of inhibitor” value [2] is reported as “inhibited”.
